For 12 compounds, Ki results are on record in patent US9273033B2, “Substituted pyridone derivatives as PDE10 inhibitors” (Merck Sharp & Dohme Corp., priority 2012, dated 2016).

The structures appear in SMILES notation.

Chain of human PDE10A2 (Q9Y233 267-1055): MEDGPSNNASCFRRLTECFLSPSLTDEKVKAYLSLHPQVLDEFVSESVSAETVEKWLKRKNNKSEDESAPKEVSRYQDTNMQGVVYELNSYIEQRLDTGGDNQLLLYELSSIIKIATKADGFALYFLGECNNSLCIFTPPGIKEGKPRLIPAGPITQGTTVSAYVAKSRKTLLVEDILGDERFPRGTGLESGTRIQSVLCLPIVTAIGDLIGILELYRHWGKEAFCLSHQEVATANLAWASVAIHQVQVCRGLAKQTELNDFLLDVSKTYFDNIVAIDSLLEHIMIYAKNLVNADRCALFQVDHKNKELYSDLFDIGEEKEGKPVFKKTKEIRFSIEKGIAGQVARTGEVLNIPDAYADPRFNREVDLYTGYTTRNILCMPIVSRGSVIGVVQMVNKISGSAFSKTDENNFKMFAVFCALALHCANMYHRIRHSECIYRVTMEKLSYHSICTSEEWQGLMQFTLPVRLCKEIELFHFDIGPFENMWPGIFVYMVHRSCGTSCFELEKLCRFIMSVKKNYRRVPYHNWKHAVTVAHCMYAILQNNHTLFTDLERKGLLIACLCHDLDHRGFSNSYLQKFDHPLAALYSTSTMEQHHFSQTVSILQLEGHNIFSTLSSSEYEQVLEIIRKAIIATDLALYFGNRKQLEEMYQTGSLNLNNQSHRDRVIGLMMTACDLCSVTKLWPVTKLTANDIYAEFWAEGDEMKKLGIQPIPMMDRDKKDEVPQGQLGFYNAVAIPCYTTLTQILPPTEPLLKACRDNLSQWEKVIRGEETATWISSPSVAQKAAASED

For this assay, the target named is human PDE10A2 (Homo sapiens (Human), UniProt Q9Y233). The assay is described as follows: PDE10 fluorescence polarization (IMAP FP) inhibition assay. Format: biochemical. The note with it: human PDE10A2, FAM-labeled cAMP substrate, read-out: PDE10A Ki. On the procedure:
The activity of the compounds in accordance with the present invention as PDE10 inhibitors may be readily determined without undue experimentation using a fluorescence polarization (FP) methodology that is well known in the art (Huang, W., et al., J. Biomol Screen, 2002, 7: 215).
In a typical experiment the PDE10 inhibitory activity of the compounds of the present invention was determined in accordance with the following experimental method. PDE10A2 was amplified from human fetal brain cDNA (Clontech, Mountain View, Calif.) using a forward primer corresponding to nucleotides 56-77 of human PDE10A2 (Accession No. AF127480, Genbank Identifier 4894716), containing a Kozak consensus sequence, and a reverse primer corresponding to nucleotides 2406-2413 of human PDE10A2 (Accession No. AF127480, Genbank Identifier 4894716). Amplification with Easy-A polymerase (Stratagene, La Jolla, Calif.) was 95° C. for 2 minutes followed by thirty three cycles of 95° C. for 40 seconds, 55° C. for 30 seconds, and 72° C. for 2 minutes 48 seconds. Final extension was 72° C. for 7 minutes. The PCR product was TA cloned into pcDNA3.2-TOPO (Invitrogen, Carlsbad, Calif.) according to standard protocol. AD293 cells with 70-80% confluency were transiently transfected with human PDE10A2/pcDNA3.2-TOPO using Lipofectamine 2000 according to manufacturer specifications (Invitrogen, Carlsbad, Calif.). Cells were harvested 48 hours post-transfection and lysed by sonication (setting 3, 10×5 sec pulses) in a buffer containing 20 mM HEPES, 1 mM EDTA and protease inhibitor cocktail (Roche). Lysate was collected by centrifugation at 75,000×g for 20 minutes. Supernatant containing the cytoplasmic fraction was used for evaluation of PDE10A2 activity. The fluorescence polarization assay for cyclic nucleotide phosphodiesterases was performed using an IMAP® FP kit supplied by Molecular Devices, Sunnyvale, Calif. (product # R8139). IMAPU technology has been applied previously to phosphodiesterase assays (Huang, W., et al., J. Biomol Screen, 2002, 7: 215). Assays were performed at room temperature in 384-well microtiter plates with an incubation volume of 20.2 μL. Solutions of test compounds were prepared in DMSO and serially diluted with DMSO to yield 8 μL of each of 10 solutions differing by 3-fold in concentration, at 32 serial dilutions per plate. 100% inhibition is determined using a known PDE10 inhibitor, which can be any compound that is present at 5,000 times its Ki value in the assay described as follows, such as papaverine (see Siuciak, et al. Neuropharmacology (2006) 51:386-396; Becker, et al. Behav Brain Res (2008) 186(2):155-60; Threlfell, et al., J Pharmacol Exp Ther (2009) 328(3):785-795), 2-{4-[pyridin-4-yl-1-(2,2,2-trifluoroethyl)-1H-pyrazol-3-yl]phenoxymethyl}quinoline succinic acid or 2-[4-(1-methyl-4-pyridin-4-yl-1H-pyrazol-3-yl)-phenoxymethyl]quinoline succinic acid (see Schmidt, et al. J Pharmacol Exp Ther (2008) 325:681-690; Threlfell, et al., J Pharmacol Exp Ther (2009) 328(3): 785-795). 0% of inhibition is determined by using DMSO (1% final concentrations).
A Labcyte Echo 555 (Labcyte, Sunnyvale, Calif.) is used to dispense 200 nL from each well of the titration plate to the 384 well assay plate. A solution of enzyme (1/1600 dilution from aliquots; sufficient to produce 20% substrate conversion) and a separate solution of FAM-labeled cAMP PDE from Molecular Devices (product # R7506), at a final concentration of 50 nM are made in the assay buffer (10 mM Tris HCl, pH 7.2, 10 mM MgCl2, 0.05% NaN3 0.01% Tween-20, and 1 mM DTT). The enzyme and the substrate are then added to the assay plates in two consecutive additions of 10 μL, and then shaken to mix. The reaction is allowed to proceed at room temperature for 30 minutes. A binding solution is then made from the kit components, comprised of 80% Solution A, 20% Solution B and binding reagent at a volume of 1/600 the total binding solution.
Take `Cc1ccc([C@H]2C[C@@H]2COc2nc(C)ncc2-c2cc(=O)n(C)cn2)nc1` [Example 141, 3-methyl-6-(2-methyl-4-(((1S,2S)-2-(5-methylpyridin-2-yl)cyclopropyl)methoxy)pyrimidin-5-yl)pyrimidin-4(3H)-one]: the Ki turned out to be 5.46 nM.

On to `Cc1ncc(-c2ccn(C)c(=O)c2)c(OC[C@@H]2C[C@H]2c2ccc(Cl)cn2)n1` [Example 103, 4-(4-(((1R,2R)-2-(5-chloropyridin-2-yl)cyclopropyl)methoxy)-2-methylpyrimidin-5-yl)-1-methylpyridin-2(1H)-one], for which the Ki amounted to 100 nM.

Regarding `Cc1ccc([C@H]2C[C@@H]2COc2nc(C)ncc2-c2ccn(CCO)c(=O)c2)nc1` [Example 126, 1-(2-hydroxyethyl)-4-(2-methyl-4-(((1S,2S)-2-(5-methylpyridin-2-yl)cyclopropyl)methoxy)pyrimidin-5-yr)pyridin-2(1H)-one], the Ki was 1.01 nM.

In the case of `Cc1ccc([C@H]2C[C@@H]2COc2nc(C)ncc2-c2ccn(CC(F)(F)F)c(=O)c2)nc1` [Example 105, 4-(2-methyl-4-(((1S,2S)-2-(5-methylpyridin-2-yl)cyclopropyl)methoxy)pyrimidin-5-yl)-1-(2,2,2-trifluoroethyl)pyridin-2(1H)-one], the Ki amounted to 0.74 nM.

As for `COCCn1c(C)c(-c2cnc(C)nc2OC[C@H]2C[C@@H]2c2ccc(C)cn2)ccc1=O` [Example 7, 1-(2-methoxyethyl)-6-methyl-5-(2-methyl-4-(((1S,2S)-2-(5-methylpyridin-2-yl)cyclopropyl)methoxy)pyrimidin-5-yl)pyridin-2(1H)-one], the Ki turned out to be 3.06 nM.

As to `COc1ccc([C@H]2C[C@@H]2COc2nc(C)ncc2-c2ccn(CC(F)(F)F)c(=O)c2)nc1` [Example 121, 4-(4-(((1S,2S)-2-(5-methoxypyridin-2-yl)cyclopropyl)methoxy)-2-methylpyrimidin-5-yl)-1-(2,2,2-trifluoroethyl)pyridin-2(1H)-one], the Ki came out at 0.299 nM.

With `CCn1c(C)c(-c2cnc(C)nc2OC[C@H]2C[C@@H]2c2ccc3ccccc3n2)ccc1=O` [Example 36, 1-ethyl-6-methyl-5-(2-methyl-4-(((1S,2S)-2-(quinolin-2-yl)cyclopropyl)methoxy)pyrimidin-5-yl)pyridin-2(1H)-one], the Ki is 0.045 nM.

On to `COc1ccc([C@H]2C[C@@H]2COc2nc(C)ncc2-c2ccc(=O)n(CCC#N)c2)nc1` [Example 45, 3-(5-(4-(((1S,2S)-2-(5-methoxypyridin-2-yl)cyclopropyl)methoxy)-2-methylpyrimidin-5-yl)-2-oxopyridin-1(2H)-yl)propanenitrile], for which the Ki worked out at 1.78 nM.

Take `Cc1ncc(-c2ccn(C)c(=O)c2)c(OC[C@H]2C[C@@H]2c2ccc3c(n2)CCC3)n1` [Example 114, 4-(4-(((1S,2S)-2-(6,7-dihydro-5H-cyclopenta[b]pyridin-2-yl)cyclopropyl)methoxy)-2-methylpyrimidin-5-yl)-1-methylpyridin-2(1H)-one]: the Ki turned out to be 0.378 nM.

On to `Cc1ncc(-c2ccc(=O)n(C)c2)c(OC[C@H]2C[C@@H]2c2ccc3c(n2)CCC3)n1` [Example 42, 5-(4-(((1S,2S)-2-(6,7-dihydro-5H-cyclopenta[b]pyridin-2-yl)cyclopropyl)methoxy)-2-methylpyrimidin-5-yl)-1-methylpyridin-2(1H)-one], for which the Ki came out at 0.531 nM.

`Cc1ccc([C@H]2C[C@@H]2COc2nc(C)ncc2-c2cnn(C)c(=O)c2)nc1` [Example 135, 2-methyl-5-(2-methyl-4-(((1S,2S)-2-(5-methylpyridin-2-yl)cyclopropyl)methoxy)pyrimidin-5-yl)pyridazin-3(2H)-one]: the Ki turned out to be 6.31 nM.

As for `Cc1ncc(-c2cc(=O)[nH]cc2C)c(OC[C@H]2C[C@@H]2c2ccc3ccccc3n2)n1` [Example 81, 5-methyl-4-(2-methyl-4-(((1S,2S)-2-(quinolin-2-yl)cyclopropyl)methoxy)pyrimidin-5-yl)pyridin-2(1H)-one], the Ki came out at 0.011 nM.
